How the values were obtained:
[1] = test system: Mäuse; experiment: Mortality of mice after repeated intravenous injections, 42-day observation; conditions: 30 daily i.v. injections, 5 consecutive days per block, 4 blocks, 2 treatment-free days between, Amphotericin B 4 mg/kg, xanthine derivatives 20 mg/kg each, dissolved in 5 % aqueous glucose solution
[2] = test system: Nieren; experiment: Histopathological examination of kidneys of intravenously treated mice (PAS staining); format: in vivo, Mäuse; conditions: mice treated i.v. over 11, 25, 39 or 53 days; Pentoxifyllin 20 mg/kg, Amphotericin B 4 mg/kg; 4 animals per time point; compared with glucose solvent control
Protocol: Weiterhin läßt sich die nephrotoxizitätssenkende Wirkung der Xanthinderivate durch histologische Untersuchung von Versuchstieren feststellen.
Dazu wurden […] Mäuse mit Glukose, Pentoxifyllin (20 mg/kg), Amphotericin B (4 mg/kg) oder der Kombination von Pentoxifyllin/Amphotericin B (20 mg/kg bzw. 4 mg/kg) über einen Zeitraum von 11, 25, 39 oder 53 Tagen intravenös behandelt.
Nach den angegebenen Versuchszeiten wurden je 4 Tiere getötet und Serum für serologische Untersuchungen entnommen. Die Nieren wurden in Bouin'schem Gemisch fixiert, nach üblicher histologischer Technik aufgearbeitet und PAS-gefärbt.

[3] = Pathophysiological serum findings (nephrotoxicity markers) in mice after repeated intravenous treatment; format: in vivo, Mäuse; conditions: serum of mice, treated 9 times intravenously within 11 days; pooled sera of 3 mice each; Pentoxifyllin 20 mg/kg, Amphotericin B 4 mg/kg
Protocol: Es wurden Mäuse im Verlauf von 11 Tagen 9 mal intravenös mit Pentoxifyllin (20 mg/kg), Amphotericin B (4 mg/kg) und Amphotericin B (4 mg/kg) in Kombination mit Pentoxifyllin (20 mg/kg) sowie mit einer Lösungsmittelkontrolle behandelt. Zur Beurteilung der Nephrotoxizität der jeweils verabreichten Substanzen wurden bei den Versuchstieren folgende Stoffe bestimmt: Creatinin: Eine gestörte Creatininclearance durch eine geschädigte Niere führt zu einem erhöhten Gehalt von Creatinin im Serum (Hypercreatininaemie) Harnstoff : Erhöhte Konzentrationen im Serum werden regelmäßig bei einer schweren Nierenfunktionsstörung beobachtet. Eine verminderte Harnstoffclearance führt zu einem erhöhten Gehalt im Serum Kalium: Da Kaliumionen bis zu 95 % durch die Nieren ausgeschieden werden, ist eine Hyperkaliaemie ein deutliches Zeichen für eine schwere Nierenfunktionsstörung. Tabelle 1

Compound	Mortalitäten nach einer Beobachtungszeit von 42 Tagen [1]	histopathologische Untersuchungen der Nieren [2]	Creatinin [3]	Harnstoff [3]	Kalium [3]
CCOCn1cnc2c1c(=O)n(CCCCC(C)(C)O)c(=O)n2C [7-Ethoxymethyl-1-(5-hydroxy-5-methylhexyl)-3-methyl-xanthin]	0 von 25 Mäusen gestorben				
Cn1c(=O)n(CCCCC(C)(C)O)c(=O)c2[nH]cnc21 [1-(5-Hydroxy-5-methyl-hexyl)-3-methylxanthin]	0 von 25 Mäusen gestorben				
CC(=O)CCCCn1c(=O)c2c(ncn2C)n(C)c1=O [Pentoxifyllin, 3,7-Dimethyl-1-(5-oxohexyl)xanthin]	0 von 25 Mäusen gestorben				
C[C@@H]1[C@H](O)[C@@H](C)/C=C/C=C/C=C/C=C/C=C/C=C/C=C/[C@H](O[C@@H]2O[C@H](C)[C@@H](O)[C@H](N)[C@@H]2O)C[C@@H]2O[C@](O)(C[C@@H](O)C[C@@H](O)[C@H](O)CC[C@@H](O)C[C@@H](O)CC(=O)O[C@H]1C)C[C@H](O)[C@H]2C(=O)O [Amphotericin B]	73 von 92 Mäusen gestorben	erhebliche Schäden des tubulären Apparats	55 µmol/L	10,5 mmol/l	10,1 mmol/l

From patent EP0414175A2, “Use of xanthine derivatives to reduce nephrotoxicity” (HOECHST AKTIENGESELLSCHAFT, priority 1989, dated 1991)
